Data published in PMC11375794, “Discovery of new Hsp90–Cdc37 protein–protein interaction inhibitors: in silico screening and optimization of anticancer activity” (RSC Advances, 2024).

Experiments:
[1] = biological target: T1, full-length Hsp90β and Cdc37 (Homo sapiens, UniProt P08238); test: MST PPI inhibition evaluation: Kd for Hsp90β in the presence of Cdc37; type: binding
T1 construct: host or cells: Escherichia coli strain Rosetta (Hsp90β)
Experimental: The full-length Hsp90β was labeled using the Monolith His-Tag Labeling Kit RED-tris-NTA following the manufacturer's instructions (NanoTemper Technologies GmbH, Munich, Germany). The proteins were first diluted to a concentration of 8 nM in assay buffer (50 mM Tris–HCl, pH 7.4, containing 150 mM NaCl, 5% ethanol, and 10 mM MgCl2). To determine the Kd values, the proteins were mixed with the test compounds in a 1 : 1 ratio as stated in the manufacturers protocol. The final concentration of Hsp90β was 4 nM, with compounds added in the following ranges: 1000 μM to 5.86 μM for 8c; 312.5 μM to 0.15 μM for 13g and 125 μM to 3.91 μM for 1. Two independent Kd determinations were performed for compounds 8c and 13g. […] Next, Cdc37 (AR09008PUN, OriGene Technologies, Inc., Rockville, MD, USA) was acquired for the purpose of PPI inhibition evaluation between full-length Hsp90β and Cdc37. […] In all experiments the compounds were incubated with the proteins for 15 minutes in the dark at room temperature. The mixtures were then loaded into Monolith NT.115 Premium Capillaries (NanoTemper Technologies GmbH, Munich, Germany). Thermophoresis was induced at 1475 ± 15 nm and measured using a Monolith NT.115 pico instrument (NanoTemper Technologies GmbH, Munich, Germany). Measurements were conducted at ambient temperature (24–25 °C), with excitation power set to 20% and MST power set to 40%, and a laser on time of 5 seconds. To calculate the Kd values, the average fluorescence responses for each concentration were plotted against the logarithm of compound concentrate on using GraphPad Prism software (GraphPad Software, Inc., La Jolla, CA).

[2] = test system: leukemia cell line THP-1; test: MTS cell viability (antiproliferative) assay in THP-1; type: cell-based; details: mean ± SD; for THP-1 IC50: 72 hours; for IC50: Homo sapiens, THP-1, 72 hours
Experimental: Hormone-positive breast cancer cell line MCF-7 (ATCC-HTB-22; ATCC) was grown in Dulbecco's Modified Eagle's Medium (DMEM), while Ewing sarcoma cell line SK-N-MC (a kind gift from Beat Schäfer) and THP-1 (ATCC-TIB-202; ATCC) cells were grown in Roswell Park Memorial Institute (RPMI) 1640. The medium was supplemented with 10% heat-inactivated fetal bovine serum (Gibco, Thermo Fisher Scientific, Waltham, MA, USA), 100 U per mL penicillin, 100 μg per mL streptomycin, and 2 mM L-glutamine (all from Sigma-Aldrich, St. Louis, MO, USA). All cell lines were incubated at 37 °C in a 5% CO2 atmosphere.
The antiproliferative activity of the compounds was evaluated against MCF-7 (ATCC-HTB-22; ATCC), SK-N-MC (a kind gift from Beat Schäfer) and THP-1 (ATCC-TIB-202; ATCC) cancer cell lines using the MTS assay (Promega, Madison, WI, USA). Cells were seeded in 96-well plates at a density of 2 × 10^4 cells per mL in 100 μL of growth medium for THP-1 and were treated with compounds and controls directly, while 3 × 10^3 cells per mL for MCF-7 and SK-N-MC were seeded in 100 μL of growth medium and allowed to adhere overnight following the treatment. In all cases the cells were treated with respective newly prepared compounds, positive controls (17-DMAG for MCF-7 and SK-N-MC; PU-H71 for THP-1) and a vehicle control (0.5% DMSO). The incubation time after treatment was 72 hours, then CellTiter96® Aqueous One Solution Reagent (Promega, Madison, WI, USA) was added to each well. Following a 3 hours incubation, absorbance was measured at 492 nm using BioTek's Synergy™ 4 Hybrid Microplate Reader (Winooski, VT, USA). The measurements were performed in two biological repetitions and each time the experiment was performed in a triplicate. The IC50 values, representing the concentration of inhibitor required for half-maximal inhibition, are the average of three independent experiments and were calculated using GraphPad Prism 9.5.0 software (San Diego, CA, USA).

[3] = test system: Hsp90 client protein levels (Cdk4, Akt, c-Raf, ERα, IGF1R) and Hsp70, Hsp90 in MCF-7 cells; test: Western blot of Hsp90 client proteins and heat shock proteins; type: cell-based; details: for ERα level: MCF-7, 20 μM; for heat shock response (Hsp70 and Hsp90 levels): MCF-7, 24 hours
Experimental: MCF-7 cells were treated with compounds 8c (20 μM and 50 μM), 13g (20 μM and 50 μM) and DDO-5936 (20 μM) or 0.5% DMSO as a negative control. The cells were incubated with the compounds or negative control for 24 hours. After incubation, the cells were rinsed with PBS (Gibco, Thermo Fisher Scientific, Waltham, MA, USA) and lysed using RIPA buffer containing 50 mM Tris–HCl pH 7.4, 150 mM NaCl, 1% NP-40, 0.5% sodium deoxycholate, and 1 mM EDTA. The RIPA buffer was further supplemented with Halt™ Protease Inhibitor Cocktail and Halt™ Phosphatase Inhibitor Cocktail (both from Thermo Fisher Scientific, Waltham, MA, USA) at a 1 : 100 dilution. The lysates were then frozen for at least 24 hours. Upon thawing, the lysates were sonicated and centrifuged at 15 000 rpm for 20 minutes at 4 °C. Only the supernatants were collected, and protein concentration was measured using the DC protein assay (Bio-Rad, Hercules, California, USA). Proteins (20 μg) were separated by SDS-PAGE on a 10% acrylamide/bisacrylamide gel, running at 80 V for 15 minutes followed by 130 V for 60 minutes. The separated proteins were then transferred onto a nitrocellulose membrane using the iBlot 2 Dry Blotting System (Thermo Fisher Scientific, Waltham, MA, USA). The membranes were blocked with 5% BSA for 1 hour at room temperature to prevent nonspecific binding. Primary antibodies were then added, and the membranes were incubated overnight at 4 °C. The primary antibodies (Cell Signaling, Danvers, MA, USA) used included anti-β-ActinMouse mAb (1 : 5000), anti-Hsp90 Rabbit mAb (1 : 1000), anti-Hsp70 Mouse mAb (1 : 1000), anti-IGF1R Rabbit (1 : 1000), anti-CDK4 Rabbit (1 : 1000), anti-ERα Mouse mAb (1 : 1000), anti-Akt Rabbit mAb (1 : 1000), and anti-c-Raf Rabbit mAb (1 : 1000). Secondary antibodies included anti-rabbit IgG, HRP-linked antibody (1 : 10 000), and anti-mouse IgG, HRP-linked antibody (1 : 10 000), which were incubated with the membranes for 1 hour at room temperature. Following washes, SuperSignal™ West Femto Maximum Sensitivity Substrate (Thermo Fisher Scientific, Waltham, MA, USA) was applied. Visualization of the blots was performed using the UVITEC Cambridge Imaging System (UVITEC, Cambridge, UK), and densitometric analysis of the western blot bands was conducted using NineAlliance software. Relative protein densities were calculated in relation to β-actin, used as a loading control.

T1 sequence (P08238 whole entry): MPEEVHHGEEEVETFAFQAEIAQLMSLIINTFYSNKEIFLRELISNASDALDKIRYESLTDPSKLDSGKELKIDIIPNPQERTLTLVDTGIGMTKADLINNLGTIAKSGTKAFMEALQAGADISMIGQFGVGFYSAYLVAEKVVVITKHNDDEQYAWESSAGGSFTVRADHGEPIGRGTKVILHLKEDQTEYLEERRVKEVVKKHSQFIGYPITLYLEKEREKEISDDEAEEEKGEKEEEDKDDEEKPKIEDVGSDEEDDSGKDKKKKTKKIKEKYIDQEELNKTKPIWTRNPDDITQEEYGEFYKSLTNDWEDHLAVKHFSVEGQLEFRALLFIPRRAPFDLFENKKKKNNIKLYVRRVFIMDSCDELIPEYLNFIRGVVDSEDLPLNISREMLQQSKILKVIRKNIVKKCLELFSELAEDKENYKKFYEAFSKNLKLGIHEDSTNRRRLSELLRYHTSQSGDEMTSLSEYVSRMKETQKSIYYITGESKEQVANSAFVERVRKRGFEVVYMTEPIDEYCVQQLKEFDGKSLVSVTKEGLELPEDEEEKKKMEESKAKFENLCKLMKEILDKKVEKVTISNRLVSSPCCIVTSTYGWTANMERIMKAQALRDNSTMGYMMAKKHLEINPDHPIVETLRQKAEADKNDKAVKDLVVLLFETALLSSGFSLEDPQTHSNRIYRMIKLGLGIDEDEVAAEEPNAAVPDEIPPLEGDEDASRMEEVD

## O=C(NCCOc1ccccc1)c1ccc(Nc2cc(N3CCNCC3)ncn2)cc1 [Compound 13g, N-(2-Phenoxyethyl)-4-((6-(piperazin-1-yl)pyrimidin-4-yl)amino)benzamide]
[1]; 1.0 μM Cdc37
  Kd (Hsp90β) in presence of Cdc37: too low for quantification
[2]
  THP-1 IC50: retained some inhibitory activity
  IC50: 41.5 ± 6.3 µM
[3]; 24 hours
  ERα level: significantly influenced
[3]; MCF-7, 50 μM, 24 hours
  concentration of kinase clients Cdk4, c-Raf, IGF1R, and Akt: decreased
[3]
  heat shock response (Hsp70 and Hsp90 levels): do not induce a heat shock response

## CN(CCOc1ccccc1)C(=O)c1csc(Nc2cc(N3CCNCC3)ncn2)n1 [Compound 8c, N-Methyl-N-(2-phenoxyethyl)-2-((6-(piperazin-1-yl)pyrimidin-4-yl)amino)thiazole-4-carboxamide]
[1]; 0.5 μM Cdc37
  Kd: 81.7 µM
[1]; 1.0 μM Cdc37
  Kd: 90.2 µM
[1]; 2.0 μM Cdc37
  Kd: 98.2 µM
[2]
  THP-1 IC50: retained some inhibitory activity
  IC50: 33.9 ± 8.5 µM
[3]; 24 hours
  ERα level: significantly influenced
[3]; MCF-7, 50 μM, 24 hours
  Hsp70 levels: statistically insignificant decrease
  concentration of kinase clients Cdk4, c-Raf, IGF1R, and Akt: decreased
[3]
  heat shock response (Hsp70 and Hsp90 levels): do not induce a heat shock response
